The subject of assay [1] is articular cartilage in rabbit osteoarthritis models. The assay can be described thus: Test for suppression of destruction of articular cartilage using rabbit osteoarthritis models (partial lateral meniscectomy). The format is in vivo, New Zealand white rabbit. On the procedure:
The tetracycline derivatives used in the present invention were tested for collagenase inhibition (in vitro), and for suppression of destruction of articular cartilage using rabbit osteoarthritis models (in vivo). The tetracycline derivatives tested were the mixture of DODMAT-2 and DODMAT-3 obtained in Synthesis Example 1 (hereinafter this mixture is referred to as "DODMAT mixture" and DOTC (mixture of isomers) obtained in Synthesis Example 2. DMAT was used as control.
The rabbit osteoarthritis models were made by the partial lateral meniscectomy procedure according to the method of C. Colombo et al [Arthritis Rheum., 26, 875 (1983)]. Adult male New Zealand white rabbits weighing approximately 3 kg each were used. The animals were anesthetized by intramuscular injection of 40 mg/kg Ketamine and 1.6 mg/kg Xylazine before surgery. The surgery was conducted as follows; the right knee was opened laterally, the fibular collateral ligament was exposed and 3-4 mm were removed. Subsequently, 3-4 mm of the sesamoid ligament were removed, followed by removal of 4-5 mm of the anterior lateral area of the exposed meniscus. The capsule and skin were then sutured. Following surgery, each animal daily received intramuscular injection of 2 mg/kg/day Dibekacin sulfate for a week to be protected from infection. The animals were sustained on standard rabbit pellets and tap water ad libitum during experiment.
The test drug (DODMAT mixture) or vehicle began 1 week post-surgery and continued every 7 days per week for 5 weeks. DODMAT, suspended in a vehicle aqueous solution containing 1% methyl cellulose, 0.8% sodium chloride, and 0.1% polysorbate 80, was administered orally by gavage. […] The histologic slides were coded and evaluated blind for 11 parameters, which are set forth in Table 2, using a scoring system of +1 to +4 for each type of abnormality as described by C. […] The data were analyzed by the one-sided Wilcoxon rank sum method.

The target of assay [2] is T1, collagenase (Oryctolagus cuniculus, UniProt P13943).
T1 construct: endogenous in cells; host or cells: primary knee articular chondrocytes of Japanese white rabbit, stimulated with human recombinant interleukin-1 ('Interleukin-1a' in the source); culture supernatant
T1 sequence (P13943 99-468): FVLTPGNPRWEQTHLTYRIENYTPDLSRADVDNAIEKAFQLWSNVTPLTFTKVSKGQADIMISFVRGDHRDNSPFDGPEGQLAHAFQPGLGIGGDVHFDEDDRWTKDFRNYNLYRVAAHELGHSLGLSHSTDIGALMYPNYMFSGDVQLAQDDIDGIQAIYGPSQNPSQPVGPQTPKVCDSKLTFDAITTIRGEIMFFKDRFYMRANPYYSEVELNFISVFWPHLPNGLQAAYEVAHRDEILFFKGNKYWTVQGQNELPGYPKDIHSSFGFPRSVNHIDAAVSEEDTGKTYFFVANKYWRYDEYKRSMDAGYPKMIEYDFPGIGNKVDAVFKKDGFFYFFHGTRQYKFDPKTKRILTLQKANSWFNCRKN
The assay can be described thus: Collagenase inhibition test (in vitro), decomposition of FITC-labelled collagen. The format is biochemical, Japanese white rabbit. To be noted: for IC50: collagenase from IL-1-stimulated rabbit chondrocyte culture supernatant, trypsin-activated, 35° C., 5% DMSO, read-out: Concentration of Drug Showing 50% Inhibition, IC50; for anti-collagenase activity (in words): refers to Test Example; for collagenase inhibition activity as a multiple of that of DMAT: relative to DMAT (control), from Table 1. As to the method:
The tetracycline derivatives used in the present invention were tested for collagenase inhibition (in vitro), and for suppression of destruction of articular cartilage using rabbit osteoarthritis models (in vivo).
The knee articular cartilage of a Japanese white rabbit (4 weeks old) was aseptically taken out. The cartilage cells (chondrocytes) were separated according to the method of S. Collier et al [Ann. Rheum. […] In 30 ml of Ham's F12 culture medium (containing 10% fetal bovine serum) 4×10^6 cartilage cells were suspended and the medium was incubated at 37° C. in a 150 cm^2 incubation flask (made by Iwaki Glass Co., Japan) and under an air atmosphere containing 5% carbon dioxide. The medium was replaced every 3 to 4 days. When the cells propagated to the state of confluence (7 to 9 days after the start of incubation), the medium was replaced by Ham's F12 serum-free culture medium (30 units/ml of human recombinant Interleukin-1a made by Genzyme Co., USA) and 0.4% lactalbumin hydrolysate (made by Sigma Co., USA) and incubation was conducted for 4 days. The culture supernatant was taken and used as the collagenase solution to be tested.
The collagenase activity was expressed based on the decomposition of 1 μg of collagen at 35° C. in 1 minute being equal to 1 unit.
A solution of a drug to be tested was dissolved in dimethyl sulfoxide (DMSO), then was added to the collagenase assay solution. The final concentration of DMSO is 5%. The inhibition ratio of the drug was calculated based on the collagen decomposition activity without its addition being 100%.

For another assay, the system named is bone resorption. The settings on record: J. Dent. Res., 66, 1310 (1987) and others; cited from earlier work.
The conditions of assay [3]: compared to tetracyclines; cited from earlier work.
The subject of assay [4] is collagenase. To be noted: J. Dent. Res., 66, 1310 (1987) and others; cited from earlier work.
Assay [5] concerns collagenase. To be noted: periodontal diseases; J. Periodontal Res., 18, 516 (1983); cited from earlier work.
The subject of the next assay is rheumatoid arthritis. The settings on record: rheumatoid arthritis patients; J. Rheumatol., 17, 43 (1990); cited from earlier work.

Take “4-dedimethylamino-12a-deoxytetracycline [DODMAT mixture]”: the “Mean score of cartilage lesions ± S.E.” value in assay [1] (15 mg/kg/day orally by gavage, 5 weeks from 1 week post-surgery, 9 animals, p < 0.05 (one-sided Wilcoxon rank sum), vehicle 46.6 ± 7.3 (7 animals)) is 24.7 ± 3.3. Besides, the “improvement resulting from treatment” value in assay [1] (cartilage lesion score versus vehicle, 15 mg/kg/day oral) is listed as “at least 47%”. In assay [1] (rabbit osteoarthritis models), the “suppression of destruction of articular cartilages (in words)” value is on record as “significant suppression of destruction of articular cartilages”. On collagenase [2], the IC50 turned out to be 2.5 µM, the “anti-collagenase activity (in words)” value is “excellent anti-collagenase activity” and the “collagenase inhibition activity as a multiple of that of DMAT” value is reported as “at least 10 times”.

12a-deoxytetracycline [DOTC]: on collagenase [2], the IC50 was 22 µM, the “anti-collagenase activity (in words)” value is reported as “excellent anti-collagenase activity” and the “collagenase inhibition activity as a multiple of that of DMAT” value was “at least 10 times”.

Regarding `C[C@@]1(O)c2cccc(O)c2C(=O)C2=C(O)[C@]3(O)C(=O)C(C(N)=O)=C(O)CC3CC21` (stereo partly drawn) [DMAT, 4-dedimethylaminotetracycline], in the assay with bone resorption, the “suppression of bone resorption compared to tetracyclines (in words)” value is given as “compares favorably to tetracyclines with respect to collagenase inhibition, suppression of bone resorption”. The IC50 at collagenase [2] was 300 µM. Moreover, the “antibacterial activity (in words)” value in assay [3] is “without the same antibacterial activity”. In addition, the “collagenase inhibition compared to tetracyclines (in words)” value in the assay on collagenase [4] is on record as “compares favorably to tetracyclines with respect to collagenase inhibition”.

Turning to `CN(C)c1ccc(O)c2c1C[C@H]1C[C@H]3[C@H](N(C)C)C(O)=C(C(N)=O)C(=O)[C@@]3(O)C(O)=C1C2=O` [minocycline], in the assay with collagenase [5], the “anti-collagenolytic activity (in words)” value is reported as “anti-collagenolytic activity”. Moreover, the “time after start of administration at which appreciable effects were observed” value in the assay on rheumatoid arthritis was 4 months.

Values taken from patent US5258371A, “Method to reduce connective tissue destruction” (Kuraray Co., Ltd., priority 1992, dated 1993).
